Measurements from patent US11691992B2 (Anacor Pharmaceuticals, Inc., priority 2017, dated 2023).

Columns and labels:
[1] = tested on: promastigote forms of L. major; experiment: Leishmania major promastigote growth inhibition assay (Alamar Blue); type: cell-based; details: promastigotes, 44 hours + 4 hours Alamar Blue, read-out: IC50: I Org. promastigote Growth L. major, 2 d
Excerpt: Example 108. Leishmania major Promastigote Growth Inhibition Assay
The promastigote assay is a microtiter plate drug sensitivity prescreen assay used to determine antileishmanial activity of candidate drugs against promastigote forms of L. major. (Shadow et al., PLOS Neglected Tropical Diseases, 2009, e311.) Alamar Blue, or resazurin, is a non-fluorescent indicator dye that is converted to bright red-fluorescent resorufin via the activity of mitochondrial reductases. As the activity of mitochondrial reductases is reduced in cells that are dead or dying, and the intensity of the fluorescence is relative to cell number, a test compound that kills or inhibits growth of a particular target cell, such as L. major, will result in a lower production of fluorescent signal. Pre-dosed microtiter drug plates for use in the promastigote drug prescreen assay were produced using sterile 384-well black optical bottom tissue culture plates (Nunc Cat #12-565-344). Candidate drugs were diluted in dimethyl sulfoxide in four 96-well plates to either 10,000 ng/ml or 1,000 ng/ml, and 4.25 μL of diluted drug was subsequently dispensed into each well of a 384-well plate. Duplicate 384 well plates were made at each test concentration (10,000 ng/mL and 1,000 ng/mL) and amphotericin B was used as a batch control. The Tecan EVO Freedom liquid handling system (Tecan US, Inc., Durham, N.C.) was used to produce all drug assay plates and conduct all pipetting operations for this assay. L. major parasites were cultured in Schneider's medium (Lonza Cat #04-351Q) supplemented with 20% heat inactivated FBS (Invitrogen Cat #16140-089). Promastigotes in early log growth phase were harvested from culture, counted, suspended at 1.32×10^5 cells/mF and 5,000 promastigotes were dispensed into each well of the 384 well plate in a volume of 38.8 μL. The 384 well plates were subsequently incubated at 28° C. for 44 hours. 8.4 μF of Alamar Blue (Promega, Cat #G8081) was added to each well, the plates were subsequently incubated at 28° C. and 5% CO2 for 4 hours and then examined for the relative fluorescence units (RFU) per well using the Tecan Genios Plus (Tecan US, Inc., Durham, N.C.) with excitation set at 560 nm and emission set at 590 nm. The relative fluorescence from each well was used to determine the percent growth inhibition of each candidate compound tested. Compounds with 50% or greater inhibition of growth were selected for further analysis to determine IC50 values.

[2] = tested on: IL3000 T. congolense (drug sensitive) strain; experiment: In vitro Alamar Blue 72 h drug sensitivity assay for T. congolense; type: cell-based; details: Trypanosoma congolense; bloodstream form, 69 h + 3 h resazurin, 34° C.; classes A-C; read-out: IC50: I Org. Growth T. congolense IL-3000, 3 d
Summary of the method: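 Bloodstream-form trypanosomes in HMI medium with 20% bovine serum, exposed to compound for 69 h at 34 °C, 5% CO2, then resazurin for 3 h more. Fluorescence read at 536/588 nm. IC50 from 11-point sigmoidal dose-response curves, at least three independent runs.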

SMILES: Cc1c(C(=O)Nc2ccc3c(c2)B(O)OC3)nnn1-c1ccccn1 [Example 84, N-(1-hydroxy-1,3-dihydrobenzo[c][1,2]oxaborol-6-yl)-5-methyl-1-(pyridin-2-yl)-1H-1,2,3-triazole-4-carboxamide]
- IC50 [1]: < 600 nM
- IC50 [2]: < 100 nM

SMILES: Cc1c(C(=O)Nc2ccc3c(c2)B(O)OC32CCC2)nnn1-c1ccc(F)cc1 [Example 9, 1-(4-fluorophenyl)-N-(1-hydroxy-1H-spiro[benzo[c][1,2]oxaborole-3,1′-cyclobutan]-6-yl)-5-methyl-1H-1,2,3-triazole-4-carboxamide]
- IC50 [1]: 600 to 2500 nM
- IC50 [2]: 310 to 100000 nM

SMILES: Cc1ccc(-n2cc(C(=O)Nc3ccc4c(c3)B(O)OC4)nn2)cc1 [Example 10, N-(1-hydroxy-1,3-dihydrobenzo[c][1,2]oxaborol-6-yl)-1-(p-tolyl)-1H-1,2,3-triazole-4-carboxamide]
- IC50 [1]: < 600 nM
- IC50 [2]: < 100 nM

SMILES: Cc1c(C(=O)Nc2ccc3c(c2)B(O)OC3C)nnn1-c1cccnc1 (stereo not shown) [Example 14]
- IC50 [1]: 2510 to 20000 nM
- IC50 [2]: < 100 nM

SMILES: O=C(Nc1ccc2c(c1)B(O)OC2)c1nnn(-c2ccccc2F)c1C(F)(F)F [Example 67, 1-(2-Fluorophenyl)-N-(1-hydroxy-1,3-dihydrobenzo[c][1,2]oxaborol-6-yl)-5-(trifluoromethyl)-1H-1,2,3-triazole-4-carboxamide]
- IC50 [2]: 100 to 300 nM

SMILES: Cc1ccc(-n2nnc(C(=O)Nc3ccc4c(c3)B(O)OC4)c2C)cc1 [Example 11, N-(1-hydroxy-1,3-dihydrobenzo[c][1,2]oxaborol-6-yl)-5-methyl-1-(p-tolyl)-1H-1,2,3-triazole-4-carboxamide]
- IC50 [1]: < 600 nM
- IC50 [2]: < 100 nM

SMILES: O=C(Nc1ccc2c(c1)B(O)OC2)c1nnn(-c2ccc(F)cc2)c1C(F)(F)F [Example 70, 1-(4-Fluorophenyl)-N-(1-hydroxy-1,3-dihydrobenzo[c][1,2]oxaborol-6-yl)-5-(trifluoromethyl)-1H-1,2,3-triazole-4-carboxamide]
- IC50 [2]: 100 to 300 nM

SMILES: O=C(Nc1ccc2c(c1)B(O)OC2)c1cn(-c2ccccn2)nn1 [Example 61, N-(1-hydroxy-1,3-dihydrobenzo[c][1,2]oxaborol-6-yl)-1-(pyridin-2-yl)-1H-1,2,3-triazole-4-carboxamide]
- IC50 [1]: < 600 nM
- IC50 [2]: < 100 nM

SMILES: COc1ccc(-n2nnc(C(=O)Nc3ccc4c(c3)B(O)OC43CCC3)c2C)cc1 [Example 20, N-(1-hydroxy-1H-spiro[benzo[c][1,2]oxaborole-3,1′-cyclobutan]-6-yl)-1-(4-methoxyphenyl)-5-methyl-1H-1,2,3-triazole-4-carboxamide]
- IC50 [1]: < 600 nM
- IC50 [2]: 310 to 100000 nM

SMILES: CC1OB(O)c2cc(NC(=O)c3cn(-c4ccccc4)nn3)ccc21 (stereo not shown) [Example 2]
- IC50 [1]: < 600 nM
- IC50 [2]: < 100 nM

SMILES: Cc1ccc(-n2nnc(C(=O)Nc3ccc4c(c3)B(O)OC43CCC3)c2C)cc1 [Example 16, N-(1-hydroxy-1H-spiro[benzo[c][1,2]oxaborole-3,1′-cyclobutan]-6-yl)-5-methyl-1-(p-tolyl)-1H-1,2,3-triazole-4-carboxamide]
- IC50 [1]: 600 to 2500 nM
- IC50 [2]: 310 to 100000 nM

SMILES: CC1OB(O)c2cc(NC(=O)c3cn(-c4cccnc4)nn3)ccc21 (stereo not shown) [Example 12, N-(1-hydroxy-3-methyl-1,3-dihydrobenzo[c][1,2]oxaborol-6-yl)-1-(pyridin-3-yl)-1H-1,2,3-triazole-4-carboxamide]
- IC50 [1]: 2510 to 20000 nM
- IC50 [2]: < 100 nM

SMILES: Cc1c(C(=O)Nc2ccc3c(c2)B(O)OC3C)nnn1-c1ccc(F)cc1 (stereo not shown) [Example 6, 1-(4-fluorophenyl)-N-(1-hydroxy-3-methyl-1,3-dihydrobenzo[c][1,2]oxaborol-6-yl)-5-methyl-1H-1,2,3-triazole-4-carboxamide]
- IC50 [1]: 600 to 2500 nM
- IC50 [2]: 100 to 300 nM

SMILES: O=C(Nc1ccc2c(c1)B(O)OC21CCC1)c1cn(-c2ccccc2)nn1 [Example 3, N-(1-hydroxy-1H-spiro[benzo[c][1,2]oxaborole-3,1′-cyclobutan]-6-yl)-1-phenyl-1H-1,2,3-triazole-4-carboxamide]
- IC50 [1]: 600 to 2500 nM
- IC50 [2]: 100 to 300 nM

SMILES: COc1ccc(-n2cc(C(=O)Nc3ccc4c(c3)B(O)OC43CCC3)nn2)cc1 [Example 25, N-(1-hydroxy-1H-spiro[benzo[c][1,2]oxaborole-3,1′-cyclobutan]-6-yl)-1-(4-methoxyphenyl)-1H-1,2,3-triazole-4-carboxamide]
- IC50 [1]: 2510 to 20000 nM
- IC50 [2]: 310 to 100000 nM

SMILES: O=C(Nc1ccc2c(c1)B(O)OC21CCC1)c1cn(-c2ccc(F)cc2)nn1 [Example 7, 1-(4-fluorophenyl)-N-(1-hydroxy-1H-spiro[benzo[c][1,2]oxaborole-3,1′-cyclobutan]-6-yl)-1H-1,2,3-triazole-4-carboxamide]
- IC50 [1]: 2510 to 20000 nM
- IC50 [2]: 310 to 100000 nM

SMILES: COc1ccc(-n2nnc(C(=O)Nc3ccc4c(c3)B(O)OC4C)c2C)cc1 (stereo not shown) [Example 19, N-(1-hydroxy-3-methyl-1,3-dihydrobenzo[c][1,2]oxaborol-6-yl)-1-(4-methoxyphenyl)-5-methyl-1H-1,2,3-triazole-4-carboxamide]
- IC50 [1]: 600 to 2500 nM
- IC50 [2]: 100 to 300 nM

SMILES: Cc1c(C(=O)Nc2ccc3c(c2)B(O)OC3C)nnn1-c1ccccn1 (stereo not shown) [Example 24, N-(1-hydroxy-3-methyl-1,3-dihydrobenzo[c][1,2]oxaborol-6-yl)-5-methyl-1-(pyridin-2-yl)-1H-1,2,3-triazole-4-carboxamide]
- IC50 [1]: 600 to 2500 nM
- IC50 [2]: < 100 nM

SMILES: Cc1c(C(=O)Nc2ccc3c(c2)B(O)OC32CCC2)nnn1-c1ccccc1 [Example 4, N-(1-hydroxy-1H-spiro[benzo[c][1,2]oxaborole-3,1′-cyclobutan]-6-yl)-5-methyl-1-phenyl-1H-1,2,3-triazole-4-carboxamide]
- IC50 [1]: 600 to 2500 nM
- IC50 [2]: 100 to 300 nM

SMILES: Cc1ccc(-n2nnc(C(=O)Nc3ccc4c(c3)B(O)OC4C)c2C)cc1 (stereo not shown) [Example 13, N-(1-hydroxy-3-methyl-1,3-dihydrobenzo[c][1,2]oxaborol-6-yl)-5-methyl-1-(p-tolyl)-1H-1,2,3-triazole-4-carboxamide]
- IC50 [1]: 600 to 2500 nM
- IC50 [2]: 100 to 300 nM

SMILES: O=C(Nc1ccc2c(c1)B(O)OC21CCC1)c1cn(-c2cccnc2)nn1 [Example 8, N-(1-hydroxy-1H-spiro[benzo[c][1,2]oxaborole-3,1′-cyclobutan]-6-yl)-1-(pyridin-3-yl)-1H-1,2,3-triazole-4-carboxamide]
- IC50 [1]: 2510 to 20000 nM
- IC50 [2]: 310 to 100000 nM

SMILES: COc1ccc(-n2nnc(C(=O)Nc3ccc4c(c3)B(O)OC4)c2C)cc1 [Example 91, N-(1-hydroxy-1,3-dihydrobenzo[c][1,2]oxaborol-6-yl)-1-(4-methoxyphenyl)-5-methyl-1H-1,2,3-triazole-4-carboxamide]
- IC50 [1]: < 600 nM
- IC50 [2]: 100 to 300 nM

SMILES: O=C(Nc1ccc2c(c1)B(O)OC2)c1nnn(-c2cccnc2)c1C(F)(F)F [Example 71, N-(1-hydroxy-1,3-dihydrobenzo[c][1,2]oxaborol-6-yl)-1-(pyridin-3-yl)-5-(trifluoromethyl)-1H-1,2,3-triazole-4-carboxamide]
- IC50 [2]: < 100 nM

SMILES: COc1ccc(-n2cc(C(=O)Nc3ccc4c(c3)B(O)OC4)nn2)cc1 [Example 21, N-(1-hydroxy-1,3-dihydrobenzo[c][1,2]oxaborol-6-yl)-1-(4-methoxyphenyl)-1H-1,2,3-triazole-4-carboxamide]
- IC50 [1]: < 600 nM
- IC50 [2]: < 100 nM

SMILES: O=C(Nc1ccc2c(c1)B(O)OC21CCC1)c1cn(-c2ccccn2)nn1 [Example 26, N-(1-hydroxy-1H-spiro[benzo[c][1,2]oxaborole-3,1′-cyclobutan]-6-yl)-1-(pyridin-2-yl)-1H-1,2,3-triazole-4-carboxamide]
- IC50 [1]: 2510 to 20000 nM
- IC50 [2]: 310 to 100000 nM

SMILES: O=C(Nc1ccc2c(c1)B(O)OC2)c1nnn(-c2cccc(F)c2)c1C(F)(F)F [Example 69, 1-(3-Fluorophenyl)-N-(1-hydroxy-1,3-dihydrobenzo[c][1,2]oxaborol-6-yl)-5-(trifluoromethyl)-1H-1,2,3-triazole-4-carboxamide]
- IC50 [2]: 100 to 300 nM

SMILES: O=C(Nc1ccc2c(c1)B(O)OC2)c1cn(-c2ccc(F)cc2)nn1 [Example 60, 1-(4-Fluorophenyl)-N-(1-hydroxy-1,3-dihydrobenzo[c][1,2]oxaborol-6-yl)-1H-1,2,3-triazole-4-carboxamide]
- IC50 [2]: < 100 nM
